According to patent US10626100B2, “Selective HDAC6 inhibitors” (The Trustees of Columbia University in the City of New York, priority 2013, dated 2020):
“Also recorded” adds a separate entry of the source.

Assays:
[1] = system: LNCaP (transformed) cells; assay: Combination with anti-cancer agents in LNCaP cells; assay type: cell-based
[2] = system: acetylated alpha-tubulin and acetylated histone H3 in LNCaP (human prostate cancer cells); assay: Accumulation of acetylated proteins in LNCaP cells (western blot); assay type: cell-based; conditions: transformed cells, concentrations as high as 16 μM
[3] = system: acetylated alpha-tubulin and acetylated histone H3 in HFS (human foreskin fibroblast) cells; assay: Accumulation of acetylated proteins in HFS normal cells (western blot); assay type: cell-based
Experimental: FIG. 5. Western blots of acetylated alpha-tubulin (Acet-Tub) and acetylated histone H3 (Acet-H3) in HFS (normal) and LNCaP (transformed) cells treated with compound 8 at 8, 16, 32, and 64 μM for 24 h. Western blots of GAPDH and total histone H3 (Total-H3) are loading controls.
Recombinant HDAC1 and HDAC6 are used to evaluate the selective inhibitory potency of each compound. Cell based assays: Normal cells (Human Foreskin Fibroblast cells), LNCaP (human prostate cancer cells), MCF-7 (human breast cancer cells, A549 (human adenocarcinoma of lung cells) and ARP-1 (human multiple myeloma cells) are used in these assays. Cells were cultured for up to 72 hr without and with the potential HDAC6-selective inhibitor. SAHA was used as a control. Cell number and cell viability were determined by enumeration. Proteins were extracted from cells and assayed for accumulation of acetylated tubulin and acetylated histones. All methods are described in Namdar et al., PNAS, 2010, 107:20003-8. In vivo animal studies: Potential HDAC6 inhibitor compounds are further assayed by administration to mice for up to 5 days with daily injections. Animals are sacrificed and tissues are analyzed for accumulation of acetylated tubulin and acetylated histones.

[4] = system: acetylated alpha-tubulin and histones in CWR22 tumors and spleen; assay: Acetylated lysine patterns in CWR22 tumors and spleen; assay type: in vivo, nude mice
Text: Tumors and spleen are removed from the animals, and histones and proteins are extracted for the detection of acetylated lysine patterns.

HFS (normal) cells = assay: Combination with anti-cancer agents in HFS cells; assay type: cell-based, human; conditions: compound 8 alone or in combination with etoposide, paclitaxel, or SAHA, 72 h
Mouse toxicity study = assay type: in vivo; conditions: mice, intraperitoneal, daily for 5 days, 100, 200, or 300 mg/kg
Experimental: FIG. 6. Average weight of immune-deficient mice treated daily by 30 μL intraperitoneal injection with indicated doses of compound 8. DMSO is the vehicle control.
Toxicity of compound 8 in mice was determined. […] Mice were intraperitoneally injected daily for 5 days with 100, 200, or 300 mg/kg compound 8. […] The effects of compound 8 on the acetylation of alpha-tubulin and histones in the spleen isolated from mice treated with compound 8 were analyzed at three time points after the administration of the drug.

[5] = HFS cells, 8 μM to 64 μM, 24 h, FIG. 5
[6] = normal cells, concentrations as high as 16 μM

O=C(NO)c1ccc(CN(CCO)C(=O)Cc2ccccc2)cc1 [Compound 8, N-hydroxy-4-((N-(2-hydroxyethyl)-2-phenylacetamido)methyl) benzamide]
cell growth and cell viability in combination with etoposide ([1]; LNCaP, 50 μM etoposide and 16 μM compound 8, 72 h, versus etoposide alone): inhibition in cell growth and loss of cell viability to a greater extent than LNCaP cells cultured with etoposide alone; also recorded: enhances etoposide or SAHA-induced transformed cell death | cell death in combination with SAHA ([1]; LNCaP, compound 8 and 5 μM SAHA, 72 h, versus SAHA alone): cell death is enhanced; also recorded: enhances etoposide or SAHA-induced transformed cell death | cell death in combination with paclitaxel ([1]; LNCaP, paclitaxel and compound 8, 72 h, versus either drug alone): increases cell death | cytotoxicity of anti-cancer drugs in transformed cells cultured with compound 8 ([1]; transformed cells, induction of apoptosis and accumulation of DNA damage): enhances the cytotoxicity of anti-cancer drugs | accumulation of acetylated PRX [2]: selectively induced accumulation of acetylated alpha-tubulin and acetylated PRX | accumulation of acetylated alpha-tubulin [3, 5]: caused accumulation of acetylated alpha-tubulin | accumulation of acetylated histones [3, 5]: not of acetylated histones | accumulation of acetylated PRX [3, 6]: selectively induced accumulation of acetylated alpha-tubulin and acetylated PRX | accumulation of acetylated alpha-tubulin [3, 6]: selectively induced accumulation of acetylated alpha-tubulin and acetylated PRX | accumulation of acetylated histones [3, 6]: not of acetylated histones | accumulation of acetylated alpha-tubulin in CWR22 tumors and spleen, combination with etoposide ([4]; combination of compound 8 and etoposide): increased accumulation of acetylated alpha-tubulin | accumulation of histones in tumors, combination with etoposide ([4]; combination of etoposide and compound 8): Increased levels of accumulation of histones | accumulation of histones in tumors, single agent ([4]; mice injected with compound 8 alone or etoposide): not with compound 8 alone | accumulation of acetylated alpha-tubulin in CWR22 tumors and spleen, single agent ([4]; mice treated with compound 8 or etoposide): increased accumulation of acetylated alpha-tubulin | cell growth (HFS (normal) cells): inhibits cell growth | cell viability (HFS (normal) cells): does not induce loss of cell viability | tolerability in animals (Mouse toxicity study): well tolerated | weight loss (Mouse toxicity study; FIG. 6): no weight loss
